Data on 9 compounds can be found in publication PMC8784640, “New insights into the molecular mechanisms of glutaminase C inhibitors in cancer cells using serial room temperature crystallography” (The Journal of Biological Chemistry, 2021).

Molecules are shown by their SMILES. Substitutions are numbered along the chain they refer to. Where “and” joins values, the source holds several entries; their conditions need not be identical. Identical values can stand only once.

One data set concerns mouse GAC (K325A). Also on record: method as in PMID 23935106. The settings on record: concentrations as high as 10 μM; equivalent to human GAC (K320A); cited from earlier work.
On the set-up of data set [1]: method as in PMID 26988803. The following applies: compared with BPTES; cited from earlier work.
A further data set relates to recombinant GAC. Also on record: method as in PMID 26988803. The settings on record: cited from earlier work; for IC50: recombinant GAC (50 nM), total glutamine hydrolysis.
A further data set concerns the target T1, GAC (F318A and Y466W) (Mus musculus, UniProt D3Z7P3, F323A/Y471W).
T1 sequence (D3Z7P3 128-555 F323A/Y471W): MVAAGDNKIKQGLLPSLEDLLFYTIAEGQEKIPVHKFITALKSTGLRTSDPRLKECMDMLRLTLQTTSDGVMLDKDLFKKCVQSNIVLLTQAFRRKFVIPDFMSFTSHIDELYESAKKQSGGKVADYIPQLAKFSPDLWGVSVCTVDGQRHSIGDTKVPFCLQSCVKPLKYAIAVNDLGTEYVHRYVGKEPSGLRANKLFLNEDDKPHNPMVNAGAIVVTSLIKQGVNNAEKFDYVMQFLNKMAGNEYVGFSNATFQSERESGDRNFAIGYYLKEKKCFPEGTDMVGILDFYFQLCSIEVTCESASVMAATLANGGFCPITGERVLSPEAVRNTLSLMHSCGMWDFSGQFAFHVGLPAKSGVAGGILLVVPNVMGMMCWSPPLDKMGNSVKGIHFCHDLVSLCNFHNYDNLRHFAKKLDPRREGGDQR
The data set is described as follows: Tryptophan fluorescence quenching binding assay, GAC (F318A and Y466W). The following applies: GAC mutant F318A, Trp 466 fluorescence, read-out: Kd (apparent).

Another data set has as its target T2, GAC (K320A and Y466W) (Mus musculus, UniProt D3Z7P3, K325A/Y471W).
T2 construct: made in house
T2 sequence (D3Z7P3 72-603 isoform D3Z7P3-2 K325A/Y471W): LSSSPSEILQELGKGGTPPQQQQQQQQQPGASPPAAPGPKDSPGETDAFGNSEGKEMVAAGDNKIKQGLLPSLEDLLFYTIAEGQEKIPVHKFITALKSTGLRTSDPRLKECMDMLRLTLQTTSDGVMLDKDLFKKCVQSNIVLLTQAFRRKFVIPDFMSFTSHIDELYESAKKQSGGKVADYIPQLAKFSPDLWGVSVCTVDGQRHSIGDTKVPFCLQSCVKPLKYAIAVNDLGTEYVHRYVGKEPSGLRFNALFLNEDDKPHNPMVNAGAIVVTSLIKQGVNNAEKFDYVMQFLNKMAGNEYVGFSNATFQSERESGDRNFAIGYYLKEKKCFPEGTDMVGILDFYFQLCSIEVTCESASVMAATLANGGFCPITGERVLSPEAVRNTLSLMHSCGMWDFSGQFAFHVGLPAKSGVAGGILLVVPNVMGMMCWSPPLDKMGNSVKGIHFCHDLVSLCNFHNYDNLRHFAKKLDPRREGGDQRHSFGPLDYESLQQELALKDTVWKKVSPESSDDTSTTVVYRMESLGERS
Nature of the data set: Tryptophan fluorescence quenching binding assay, GAC (K320A and Y466W). The following applies: GAC mutant K320A, Trp 466 fluorescence, read-out: Kd (apparent).

The target of another data set is T3, GAC (R317A and Y466W) (Mus musculus, UniProt D3Z7P3, R322A/Y471W).
T3 sequence (D3Z7P3 128-555 R322A/Y471W): T1 sequence (D3Z7P3 128-555 F323A/Y471W) with R195A, A196F
The data set is described as follows: Tryptophan fluorescence quenching binding assay, GAC (R317A and Y466W). The settings on record: GAC mutant R317A, Trp 466 fluorescence, read-out: Kd (apparent).

A further data set addresses T4, GAC (Y466W) (Mus musculus, UniProt D3Z7P3, Y471W).
T4 sequence (D3Z7P3 72-603 isoform D3Z7P3-2 Y471W limits assumed): T2 sequence (D3Z7P3 72-603 isoform D3Z7P3-2 K325A/Y471W) with A254K
The data set is described as follows: Tryptophan fluorescence quenching binding assay, GAC (Y466W). The settings on record: for Kd: Kd (apparent), Trp 466 fluorescence quenching.

For the next data set, the target named is T5, GAC (F322W) (Mus musculus, UniProt D3Z7P3, F327W).
T5 sequence (D3Z7P3 72-603 isoform D3Z7P3-2 F327W limits assumed): T2 sequence (D3Z7P3 72-603 isoform D3Z7P3-2 K325A/Y471W) with A254K, F256W, W400Y
The data set is described as follows: Tryptophan fluorescence quenching binding assay, GAC (F322W).

Experimental for GAC (F322W): (§1) We first examined their ability to alter the conformation of the activation loop, that is, the site where the compounds bind to GAC ([15], [28]). […] We then treated the GAC (Y466W) mutant with each molecule to monitor conformational changes within the substrate-binding site ([15], [28]).
(§2) Mouse GAC (F327W) and GAC (Y471W), which correspond to human GAC (F322W) and GAC (Y466W), were prepared as previously described ([14], [28]), except that the protein was eluted in a higher salt buffer during FPLC purification (500 mM NaCl, 20 mM Tris–HCl, pH 8.5) to enhance protein stability. Assays were then conducted as previously described ([14], [28]). Briefly, 100 nM GAC (F327W) or GAC (Y471W) was solvated in 1 ml of 50 mM Tris-acetate, pH 8.5, with 0.1 mM EDTA and the indicated amount of inhibitor.
Experimental for GAC (Y466W): as §1, §2

For the compound `O=C(Cc1ccccc1)Nc1nnc(CCSCCc2nnc(NC(=O)Cc3ccccc3)s2)s1` [BPTES, bis-2-(5-phenylacetamido-1,3,4-thiadiazol-2-yl)ethyl sulfide, reference compound], the “inhibition of mouse GAC (K325A)” value with mouse GAC (K325A) is reported as “resistant to inhibition”.

In the case of `O=C(Cc1cccc(OC(F)(F)F)c1)Nc1ccc(CCCCc2nnc(NC(=O)Cc3ccccn3)s2)nn1` [CB-839, reference compound], the “calculated logP relative to BPTES” value in data set [1] is “higher calculated logP”.

In the case of `O=C(Cc1ccccc1)Nc1nnc(NC2CCN(c3nnc(NC(=O)Cc4ccccc4)s3)CC2)s1` [UPGL00004], the IC50 (in general, the concentration needed to halve the response being measured) with recombinant GAC is 29 nM. Moreover, the Kd at GAC (F318A and Y466W) is 24 nM; on GAC (K320A and Y466W), greater than 1000 nM; on GAC (R317A and Y466W), 38 nM; at GAC (Y466W) (100 nM GAC (Y466W)) it was 76 nM.

Regarding `O=C(Cc1ccccc1)Nc1nnc(O[C@H]2CCN(c3nnc(NC(=O)Cc4ccccc4)s3)C2)s1` [UPGL00015], the IC50 with recombinant GAC was 40 nM.

Take `Nc1nnc(OC2CCN(c3nnc(N)s3)CC2)s1` [UPGL00018]: the inhibition – broadly, how much of the control response was suppressed – in the data set on recombinant GAC (at 10 μM, catalytic data of this paper come from ref 20) is recorded as roughly 20%. For the same compound, the half-inhibitory concentration (IC50) with recombinant GAC was greater than 10000 nM. The same compound yielded a Kd at GAC (F322W) greater than 1000 nM. Also, on GAC (F322W) (GAC (F322W)), the “lowest concentration with statistically significant quenching” value stood at 240 nM and the “quenching of Trp 322 fluorescence (in words)” value is given as “largely ineffective at micromolar concentrations”. On GAC (Y466W) (100 nM GAC (Y466W), 1 μM UPGL00018 and 1 μM UPGL00019, simultaneous or sequential), the “competition with UPGL00019 for GAC binding” value is on record as “unable to compete away UPGL00019”. In addition, at GAC (Y466W) (GAC (Y466W)), the “quenching of Trp 466 fluorescence / binding (in words)” value was “markedly less effective”. Moreover, the “lowest concentration with statistically significant effect on tryptophan fluorescence” value at GAC (Y466W) (GAC (Y466W), highest tested concentration, effect minimal) was found to be 980 nM. For the same compound, the Kd on GAC (Y466W) (100 nM GAC (Y466W)) is greater than 1000 nM.

As to `O=C(Cc1ccccc1)Nc1nnc(OC2CCN(c3nnc(NC(=O)Cc4ccccc4)s3)CC2)s1` [UPGL00019], the IC50 in the data set with recombinant GAC was 30 nM. Also, the Kd on GAC (F318A and Y466W) was 54 nM; at GAC (K320A and Y466W), greater than 1000 nM; on GAC (F322W), 54.5 nM; on GAC (R317A and Y466W), 31 nM; at GAC (Y466W) (100 nM GAC (Y466W)), 28.7 nM and 29 nM. Further, the “quenching of Trp 322 fluorescence (in words)” value at GAC (F322W) (GAC (F322W)) was “quenching of Trp 322 fluorescence”. Also, the “quenching of Trp 466 fluorescence / binding (in words)” value on GAC (Y466W) (GAC (Y466W)) is “effective at causing a quenching of Trp 466 fluorescence”.

Consider `CC(=O)Nc1nnc(OC2CCN(c3nnc(NC(C)=O)s3)CC2)s1` [UPGL00020], for which, in the data set with recombinant GAC, the IC50 is 1050 nM. In addition, the “quenching of Trp 466 fluorescence / binding (in words)” value on GAC (Y466W) (GAC (Y466W)) is recorded as “significantly reduced binding”.

On to `Nc1nnc(N2CCC(Oc3nnc(NC(=O)Cc4ccccc4)s3)CC2)s1` [UPGL00031], for which, in the data set with recombinant GAC, the concentration for half-maximal inhibition (IC50) is 203 nM. Also, the Kd at GAC (F322W) was 34.4 nM; at GAC (Y466W) (100 nM GAC (Y466W)) it was 27.2 nM. Also, the “quenching of Trp 322 fluorescence (in words)” value at GAC (F322W) (GAC (F322W)) is “quenching of Trp 322 fluorescence”. In addition, the “quenching of Trp 466 fluorescence / binding (in words)” value at GAC (Y466W) (GAC (Y466W)) is “effective at causing a quenching of Trp 466 fluorescence”.

`O=C(Cc1ccccc1)Nc1ccc(OC2CCN(c3ccc(NC(=O)Cc4ccccc4)nn3)CC2)nn1` [UPGL00045]: the IC50 in the data set on recombinant GAC is 98 nM.
